In publication PMC4763988, “Activating peptides for cellular uptake via polymerization into high density brushes” (Chemical Science, 2015):
NorAha = not defined here

Key:
HeLa cells [1] = assay: Propidium iodide cell staining assay for necrotic cells; format: cell-based; details: flow cytometry PI channel; for Propidium iodide staining, shift of cell population (in words): KLA m ~ 10 5 hr, staurosporine 1 µM 24 hrs
Procedure: Apoptosis and necrosis assays. Apoptotic and necrotic cells were identified using the CFTM488A Annexin V
stains necrotic cells. For these studies, HeLa cells were plated at a density of 420,000 cells per well of a 6-well
plate 18 hrs prior to treatment. KLA, m ~ 10, was dissolved in DPBS to a concentration of 2000 µM, where
concentration is with respect to peptide and no fluorophore is present. Staurosporin, a small molecule that is
known to cause apoptosis, was dissolved at 1000× (desired concentration on cells is 1 µM) in DMSO.
Staurosporin and the vehicle control were added to the wells 24 hrs prior to analysis, and KLA (m ~ 10) and 10%
DMSO control were added 5 hr prior to analysis. After incubation, materials were removed and the cells were
washed 2× with DPBS followed by 3 × 5 minute incubations with heparin (0.5 mg/mL in DPBS), and finally rinsed
and the cells were transferred to Eppendorf tubes. The suspended cells were centrifuged to pellets and then
resuspended in 100 µL Annexin V binding buffer. Then 5 µL of Annexin V was added to each Eppendorf, followed
by 1 µL of PI. The cells were then incubated in a 37 ° C water bath for 15 minutes in the dark. After incubation,
flow cytometry data was acquired monitoring the FITC channel (for Annexin V staining) and the PI channel.

cells = details: cited from earlier work
[2] = Aggregation in DPBS by TEM; format: physicochemical; details: dissolved in DPBS, 10 x the concentration used in uptake studies
Excerpt: (§1) and dried. In preparation for in vitro cell studies, all polymers were washed (3×) with cold ether (to remove the Ru catalyst) and then dissolved in DPBS and dialyzed in dialysis cups with a molecular weight cut-off value of 3500 (Thermo Scientific, cat. # 69552) in an effort to remove any residual monomer or catalyst.
(§2) We also sought to determine whether our block copolymers (i.e., GSGSGRR60-b-OEG20 and derivatives) formed larger aggregate structures in aqueous solution. To this end, we characterized three polymers GSGSGRR m ~ 60, GSGSGKK m ~ 60 and GSGSG m ~ 60 dissolved in DPBS by standard dynamic light scattering (DLS) and […] electron microscopy (TEM) analyses, which we perform routinely in other work to characterize nano-and micron-scale polymer assemblies. […]
(§3) Figure S5. Polymerization scheme for the preparation of GSGSG peptide polymers and analogues. Peptide polymers for this series are prepared via ROMP as block copolymers with an accessory OEG block to ensure aqueous solubility of all GSGSG analogues. Each peptide block is polymerized to m ~ 8, 15, 30, and 60. The OEG block is kept constant at a DP of ~ 20. The living polymer can be terminated with ethyl vinyl ether after completion of the peptide block to gain accurate molecular weights (Mn), dispersity (Mw/Mn) and degree of polymerization (DP). […]

[3] = Aggregation in DPBS by dynamic light scattering; format: physicochemical; details: for diameter by DLS: dissolved in DPBS, 10 x the concentration used in uptake studies, correlates to unimers
Excerpt: as §1, §2
quench here with IV. deprotection
as §3

[4] = tested on: pronase (protease cocktail); details: 50 µM with respect to peptide, protease 1 µM (Fig. S25 for KLA: 10 µM), 3 hrs in DPBS, heat denatured 65 °C 15 m, RP-HPLC with standard curve
HeLa cells [5] = tested on: HeLa cells
trypsin = trypsin (Sus scrofa, UniProt P00761); details: 50 µM with respect to peptide, protease 1 µM (Fig. S25 for KLA: 10 µM), 3 hrs in DPBS, heat denatured 65 °C 15 m, RP-HPLC with standard curve
Sequence of trypsin (P00761 9-231): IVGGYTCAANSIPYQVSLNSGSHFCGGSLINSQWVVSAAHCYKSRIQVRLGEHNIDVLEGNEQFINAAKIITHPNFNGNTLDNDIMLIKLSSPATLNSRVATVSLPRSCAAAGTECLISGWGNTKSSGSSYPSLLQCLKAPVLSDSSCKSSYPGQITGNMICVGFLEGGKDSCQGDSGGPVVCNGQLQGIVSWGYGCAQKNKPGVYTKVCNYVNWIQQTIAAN

HeLa cells [6] = tested on: HeLa cells; remark: listed apart in the source
HeLa cells [7] = format: cell-based
Procedure: Figures S10. Influence of the degree of polymerization or “m” on cellular uptake as quantified by flow cytometry. All data are […] with respect to the fluorophore. 20 15 10 Conc.&(μM)& […] 5 […] 0 […] Figures S11. Concentration dependence of cellular uptake as quantified by flow cytometry. All data are referenced to vehicle […] Concentration of all materials is with respect to the fluorophore. SVI. Live-cell confocal microscopy. HeLa cells were plated on glass-bottom 24-well plates at a cell density of 90,000 cells per well 18 hrs prior to treatment with the compound of interest. The medium was removed and then replaced with medium lacking phenol red (Gibco Life Tech., cat# 31053-028) to minimize background fluorescence. […] respect to fluorophore) were added to the wells and the plates were incubated for 30 min at 37 °C. The medium was then removed and the cells were rinsed 2× with DPBS, and then fresh medium (phenol red- free) was added to each well. Live cells were imaged on an Olympus FV1000 confocal microscope with a chamber at 37 ° C under 5% CO2 via a Z-stack analysis (set to 1 μm slices) using identical instrument settings for each image and a 40× or 100x objective. S14 (also on this page, place not known: 31053 -028) […] Normalized Mean Fluorescence […]

[8] = tested on: mitochondrial membrane potential in HeLa cells; assay: JC-1 mitochondrial integrity (membrane potential) assay; format: cell-based; details: JC-1 assay, relative to vehicle (DPBS)-treated cells

Question: With `C[S+](C)[O-]` [DMSO] as the compound, how does the “Propidium iodide staining, increase in necrotic cells” value (HeLa cells [1]; 10% DMSO added 5 hr prior to analysis) read?
Answer: ~40 fold increase

Question: Which “Propidium iodide staining, shift of cell population (in words)” value (HeLa cells [1]) does the source give for `CN[C@@H]1C[C@H]2O[C@@](C)([C@@H]1OC)n1c3ccccc3c3c4c(c5c6ccccc6n2c5c31)C(=O)NC4` [Staurosporine] here?
Answer: no shift

Question: With GSGSG as the compound, how does the “Cell penetration of GSGSG (in words)” value (cells) read?
Answer: does not penetrate cells

Question: For GSGSG56-b-OEG28 [GSGSG polymer], which “TEM images compared with buffer (DPBS) alone” value [2] is on record?
Answer: indistinguishable

Question: What about the “diameter by DLS” value [3] of the same compound?
Answer: < 6 nm

Question: Which “Aggregation of deprotected polymer in DPBS by dynamic light scattering (in words)” value ([3]; DPBS, deprotected polymer) does the source give for “GSGSGK53-b-OEG20 [GSGSGK Polymer (m ~ 60)]” here?
Answer: did not aggregate in DPBS

Question: For K(Flu)KLAKLAKKLAKLAK-NH2 [KLA peptide], which “Proteolytic degradation by pronase (RP-HPLC before and after, in words)” value [4] is on record?
Answer: completely degraded into fragments

Question: What about the “Cytotoxicity (in words)” value (HeLa cells [5]) of the same compound?
Answer: no cytotoxicity was detected

Question: And the “Cell penetration of KLA (in words)” value (cells; sub-millimolar concentrations)?
Answer: does not penetrate cells at sub-millimolar concentrations

Question: What about the “Proteolytic degradation by trypsin (RP-HPLC before and after, in words)” value (trypsin) of the same compound?
Answer: completely degraded into fragments

Question: And the “Cellular uptake: fluorescence signal of treated HeLa cells by flow cytometry (in words)” value (HeLa cells [6])?
Answer: indistinguishable from that of the vehicle control

Question: For NorAhaGSGSGKK-NH2 [GSGSGKK polymer], which “TEM images compared with buffer (DPBS) alone” value [2] is on record?
Answer: indistinguishable

Question: And the “diameter by DLS” value [3]?
Answer: < 6 nm

Question: What about the “Internalization and localization by live-cell confocal microscopy (in words)” value (HeLa cells [7]) of the same compound?
Answer: diffuse and punctate fluorescence

Question: Which results are given for “NorAhaKLAKLAK-NH2 (NorAha-KLAKLAK-NH2; reading uncertain; also: polymerized by ROMP, about 10 repeats on polymer backbone) [KLAfragment]”?
Answer: Mitochondrial integrity of treated cells (in words) [8]: unaffected; Cytotoxicity (in words) (HeLa cells [5]): negligible toxicity; Internalization and localization by live-cell confocal microscopy (in words) (HeLa cells [7]): mixture of diffuse and punctate fluorescence

Question: With “NorAhaKLAKLAKKLAKLAK-NH2 [KLA polymer (m ∼ 5)]” as the compound, how does the LD50 (HeLa cells [5]) read?
Answer: 12.5 µM

Question: Which LD50 (HeLa cells [5]) does the source give for “NorAhaKLAKLAKKLAKLAK-NH2 [KLA polymer (m ∼ 10), KLA peptide homopolymer by ROMP, m ∼ 10]” here?
Answer: 25 µM

Question: What about the “Internalization and localization by live-cell confocal microscopy (in words)” value (HeLa cells [7]) of the same compound?
Answer: diffuse and punctate fluorescence

Question: What about the “Propidium iodide staining, shift of cell population (in words)” value (HeLa cells [1]) of the same compound?
Answer: no shift

Question: For “NorAhaKLAKLAKKLAKLAK-NH2 [KLA polymer (m ∼ 15)]”, which LD50 (HeLa cells [5]) is on record?
Answer: 30 µM
